Test results from ChEMBL document CHEMBL1201862, “PubChem BioAssay data set” (2004).
Activity calls are given as the source filed them.

Columns and labels:
INS1 = test: INS-1E survival protection against cytokine death – cell-based, luminescence, retest, dose response (AID 449756); assay type: functional; settings: Rattus norvegicus;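 also: cell death triggered by IL-1 beta plus TNF-alpha plus IFN-gamma mixture; protective hits raise ATP signal compared with cytokine alone wells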
[1] = target: Glucose-6-phosphate 1-dehydrogenase (Homo sapiens, UniProt P11413); test: inhibition of Homo sapiens G6PD, dose series – biochemical, fluorescence, selectivity assay for P. falciparum G6PD inhibitor project, dose response (AID 504792); assay type: functional
Streptococcus = test: GAS UMAA2166 growth inhibition – luminescence, BacTiterGlo, counter-screen for streptokinase expression inhibitor project, dose response (AID 1915); assay type: functional, organism-based; settings: read-out: EC50;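 also: potency for reduction of bacterial viability or growth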
[2] = test system: Streptococcus sp. 'group A'; test: Streptococcus pyogenes SK(-)GAS viability under kanamycin – luminescence, BacTiterGlo, confirmation, counter-screen for streptokinase expression inhibitor project, dose response (AID 1900); assay type: functional, organism-based
[3] = target: T1, Sentrin-specific protease 8 (Homo sapiens, UniProt Q96LD8); assay type: functional;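 also: luminescence read-out of SENP8 inhibition, dose-response confirmation following an ultra-high-throughput screen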
T1 sequence (Q96LD8 whole entry): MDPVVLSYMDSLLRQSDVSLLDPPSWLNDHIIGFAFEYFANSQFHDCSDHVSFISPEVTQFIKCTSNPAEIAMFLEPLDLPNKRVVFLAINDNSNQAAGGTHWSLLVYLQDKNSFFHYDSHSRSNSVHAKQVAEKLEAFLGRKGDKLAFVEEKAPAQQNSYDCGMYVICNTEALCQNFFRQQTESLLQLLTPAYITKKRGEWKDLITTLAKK

[4] = target: T2, Apoptotic protease-activating factor 1 (Homo sapiens, UniProt O14727); assay type: functional
T2 sequence (O14727 whole entry): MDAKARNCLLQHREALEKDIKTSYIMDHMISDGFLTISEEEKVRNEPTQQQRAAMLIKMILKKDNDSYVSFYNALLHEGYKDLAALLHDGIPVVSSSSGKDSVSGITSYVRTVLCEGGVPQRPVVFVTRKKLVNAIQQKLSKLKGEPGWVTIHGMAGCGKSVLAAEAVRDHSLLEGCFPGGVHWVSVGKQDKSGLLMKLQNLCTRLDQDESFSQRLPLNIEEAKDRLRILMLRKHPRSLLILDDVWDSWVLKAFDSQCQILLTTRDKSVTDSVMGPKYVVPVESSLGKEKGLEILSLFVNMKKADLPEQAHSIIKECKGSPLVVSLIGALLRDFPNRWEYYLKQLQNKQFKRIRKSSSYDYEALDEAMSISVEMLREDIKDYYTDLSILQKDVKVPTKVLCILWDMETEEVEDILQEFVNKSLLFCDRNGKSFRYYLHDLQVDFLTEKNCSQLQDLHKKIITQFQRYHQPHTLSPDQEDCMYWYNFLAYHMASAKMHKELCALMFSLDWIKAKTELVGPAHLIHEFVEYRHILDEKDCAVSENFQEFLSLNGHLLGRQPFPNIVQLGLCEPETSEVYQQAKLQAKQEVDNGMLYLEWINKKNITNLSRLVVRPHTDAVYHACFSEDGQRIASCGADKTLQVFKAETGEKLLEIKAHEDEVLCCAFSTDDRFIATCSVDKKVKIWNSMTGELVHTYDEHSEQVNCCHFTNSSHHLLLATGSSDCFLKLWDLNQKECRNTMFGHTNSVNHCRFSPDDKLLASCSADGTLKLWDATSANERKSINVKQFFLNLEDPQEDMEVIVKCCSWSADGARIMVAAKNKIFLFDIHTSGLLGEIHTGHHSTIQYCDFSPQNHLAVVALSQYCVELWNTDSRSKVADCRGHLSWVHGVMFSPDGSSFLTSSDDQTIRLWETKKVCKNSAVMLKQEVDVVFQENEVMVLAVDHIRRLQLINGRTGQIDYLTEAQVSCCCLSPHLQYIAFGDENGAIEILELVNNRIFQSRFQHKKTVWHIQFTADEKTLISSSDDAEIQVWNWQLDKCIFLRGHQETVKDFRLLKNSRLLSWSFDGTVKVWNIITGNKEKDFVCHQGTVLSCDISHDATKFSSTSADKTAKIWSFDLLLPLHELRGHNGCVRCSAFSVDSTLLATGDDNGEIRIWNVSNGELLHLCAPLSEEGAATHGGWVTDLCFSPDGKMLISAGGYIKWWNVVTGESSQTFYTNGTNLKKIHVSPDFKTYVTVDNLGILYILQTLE

[5] = target: Vascular endothelial growth factor receptor 2 (Homo sapiens, UniProt P35968); assay type: functional
Vascular endothelial growth factor receptor 2, sequence (P35968 whole entry): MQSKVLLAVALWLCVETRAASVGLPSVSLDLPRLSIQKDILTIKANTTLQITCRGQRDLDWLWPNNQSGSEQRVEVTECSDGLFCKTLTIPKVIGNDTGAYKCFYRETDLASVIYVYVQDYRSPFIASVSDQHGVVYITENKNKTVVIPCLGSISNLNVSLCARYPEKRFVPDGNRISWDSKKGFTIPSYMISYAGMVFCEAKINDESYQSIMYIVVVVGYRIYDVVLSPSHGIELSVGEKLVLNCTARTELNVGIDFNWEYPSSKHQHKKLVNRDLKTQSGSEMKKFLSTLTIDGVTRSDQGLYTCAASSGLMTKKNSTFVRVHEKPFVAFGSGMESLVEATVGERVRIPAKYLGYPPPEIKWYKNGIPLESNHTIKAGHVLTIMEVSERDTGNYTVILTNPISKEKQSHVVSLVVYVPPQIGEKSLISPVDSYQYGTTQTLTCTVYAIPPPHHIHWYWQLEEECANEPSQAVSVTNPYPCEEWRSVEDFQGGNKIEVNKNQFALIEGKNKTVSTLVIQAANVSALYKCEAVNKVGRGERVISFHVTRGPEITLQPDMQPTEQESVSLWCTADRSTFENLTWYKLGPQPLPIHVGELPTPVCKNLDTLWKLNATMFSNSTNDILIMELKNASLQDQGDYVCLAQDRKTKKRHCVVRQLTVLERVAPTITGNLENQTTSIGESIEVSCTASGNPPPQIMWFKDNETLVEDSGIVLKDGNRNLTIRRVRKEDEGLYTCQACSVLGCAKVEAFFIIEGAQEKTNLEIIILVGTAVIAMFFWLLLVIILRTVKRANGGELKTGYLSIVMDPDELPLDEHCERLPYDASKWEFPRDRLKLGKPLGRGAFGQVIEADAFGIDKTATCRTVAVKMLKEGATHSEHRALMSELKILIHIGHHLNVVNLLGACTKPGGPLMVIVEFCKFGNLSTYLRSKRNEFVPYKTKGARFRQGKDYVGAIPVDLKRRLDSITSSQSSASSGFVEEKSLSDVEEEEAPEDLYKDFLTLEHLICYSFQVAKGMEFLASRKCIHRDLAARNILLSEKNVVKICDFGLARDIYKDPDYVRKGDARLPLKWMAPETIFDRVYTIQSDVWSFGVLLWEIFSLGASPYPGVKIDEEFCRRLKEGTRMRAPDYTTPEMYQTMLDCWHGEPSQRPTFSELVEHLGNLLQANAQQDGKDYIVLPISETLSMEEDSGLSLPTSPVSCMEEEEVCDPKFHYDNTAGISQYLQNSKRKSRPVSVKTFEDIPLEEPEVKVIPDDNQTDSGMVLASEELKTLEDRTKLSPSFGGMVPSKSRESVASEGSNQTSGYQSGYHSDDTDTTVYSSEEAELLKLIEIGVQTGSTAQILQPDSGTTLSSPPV

[6] = target: Tyrosine-protein kinase Fyn (Homo sapiens, UniProt P06241); assay type: functional
Tyrosine-protein kinase Fyn, sequence (P06241 whole entry): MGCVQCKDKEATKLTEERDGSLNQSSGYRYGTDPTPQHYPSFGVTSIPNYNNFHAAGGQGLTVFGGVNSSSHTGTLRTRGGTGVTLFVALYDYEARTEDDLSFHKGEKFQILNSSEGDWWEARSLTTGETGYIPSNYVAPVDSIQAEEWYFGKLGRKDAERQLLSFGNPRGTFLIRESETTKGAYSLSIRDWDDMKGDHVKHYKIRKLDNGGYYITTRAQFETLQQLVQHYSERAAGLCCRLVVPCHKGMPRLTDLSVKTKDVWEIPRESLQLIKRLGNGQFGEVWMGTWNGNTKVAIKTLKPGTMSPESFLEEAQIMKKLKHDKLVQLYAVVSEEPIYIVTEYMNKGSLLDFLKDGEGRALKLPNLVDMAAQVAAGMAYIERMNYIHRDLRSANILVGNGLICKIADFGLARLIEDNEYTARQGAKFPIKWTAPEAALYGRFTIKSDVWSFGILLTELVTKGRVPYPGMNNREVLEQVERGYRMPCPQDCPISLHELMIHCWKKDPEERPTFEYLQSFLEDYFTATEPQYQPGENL

[7] = target: Macrophage colony-stimulating factor 1 receptor (Homo sapiens, UniProt P07333); assay type: functional;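 also: value comes from the Navigating the Kinome screening panel, CSF1R member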
[8] = target: Mitogen-activated protein kinase 9 (Homo sapiens, UniProt P45984); assay type: functional;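 also: value from a kinome panel profiling assay, MAPK9 panel entry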
Mitogen-activated protein kinase 9, sequence (P45984 whole entry): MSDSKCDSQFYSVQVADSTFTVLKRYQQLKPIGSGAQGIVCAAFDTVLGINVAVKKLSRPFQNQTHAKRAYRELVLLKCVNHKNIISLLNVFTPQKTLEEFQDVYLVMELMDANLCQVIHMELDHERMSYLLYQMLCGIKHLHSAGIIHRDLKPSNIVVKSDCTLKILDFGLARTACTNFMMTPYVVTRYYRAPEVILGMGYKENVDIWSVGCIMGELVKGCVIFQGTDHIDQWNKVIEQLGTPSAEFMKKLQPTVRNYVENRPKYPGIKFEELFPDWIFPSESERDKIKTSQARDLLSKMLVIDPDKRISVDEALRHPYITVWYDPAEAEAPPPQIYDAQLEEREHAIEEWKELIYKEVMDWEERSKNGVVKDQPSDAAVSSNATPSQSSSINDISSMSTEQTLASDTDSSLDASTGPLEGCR

[9] = target: Serine/threonine-protein kinase PAK 4 (Homo sapiens, UniProt O96013); assay type: functional;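 also: value obtained within a kinome profiling panel in which PAK4 was one of the panel members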
Serine/threonine-protein kinase PAK 4, sequence (O96013 whole entry): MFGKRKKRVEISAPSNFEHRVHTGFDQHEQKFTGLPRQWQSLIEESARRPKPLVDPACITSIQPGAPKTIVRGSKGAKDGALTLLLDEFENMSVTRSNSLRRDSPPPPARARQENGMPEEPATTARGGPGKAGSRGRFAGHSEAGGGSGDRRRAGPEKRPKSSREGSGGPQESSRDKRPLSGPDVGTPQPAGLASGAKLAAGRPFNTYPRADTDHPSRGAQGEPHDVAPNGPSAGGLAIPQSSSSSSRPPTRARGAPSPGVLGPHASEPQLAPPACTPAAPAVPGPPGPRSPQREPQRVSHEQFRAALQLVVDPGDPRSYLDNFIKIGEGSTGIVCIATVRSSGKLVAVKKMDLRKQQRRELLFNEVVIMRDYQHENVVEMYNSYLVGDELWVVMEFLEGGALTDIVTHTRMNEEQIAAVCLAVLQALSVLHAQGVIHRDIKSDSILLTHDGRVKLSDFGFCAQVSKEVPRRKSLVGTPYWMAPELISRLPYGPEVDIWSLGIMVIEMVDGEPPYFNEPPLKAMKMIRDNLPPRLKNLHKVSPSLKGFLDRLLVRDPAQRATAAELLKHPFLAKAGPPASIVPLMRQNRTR

[10] = target: Glycogen synthase kinase-3 alpha (Homo sapiens, UniProt P49840); assay type: functional;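 also: GSK3A result taken from a broad kinome-wide kinase panel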
[11] = target: Mitogen-activated protein kinase kinase kinase kinase 2 (Homo sapiens, UniProt Q12851); assay type: functional;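 also: measured as one member of a kinome-wide kinase panel, with MAP4K2 as the panel entry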
Mitogen-activated protein kinase kinase kinase kinase 2, sequence (Q12851 whole entry): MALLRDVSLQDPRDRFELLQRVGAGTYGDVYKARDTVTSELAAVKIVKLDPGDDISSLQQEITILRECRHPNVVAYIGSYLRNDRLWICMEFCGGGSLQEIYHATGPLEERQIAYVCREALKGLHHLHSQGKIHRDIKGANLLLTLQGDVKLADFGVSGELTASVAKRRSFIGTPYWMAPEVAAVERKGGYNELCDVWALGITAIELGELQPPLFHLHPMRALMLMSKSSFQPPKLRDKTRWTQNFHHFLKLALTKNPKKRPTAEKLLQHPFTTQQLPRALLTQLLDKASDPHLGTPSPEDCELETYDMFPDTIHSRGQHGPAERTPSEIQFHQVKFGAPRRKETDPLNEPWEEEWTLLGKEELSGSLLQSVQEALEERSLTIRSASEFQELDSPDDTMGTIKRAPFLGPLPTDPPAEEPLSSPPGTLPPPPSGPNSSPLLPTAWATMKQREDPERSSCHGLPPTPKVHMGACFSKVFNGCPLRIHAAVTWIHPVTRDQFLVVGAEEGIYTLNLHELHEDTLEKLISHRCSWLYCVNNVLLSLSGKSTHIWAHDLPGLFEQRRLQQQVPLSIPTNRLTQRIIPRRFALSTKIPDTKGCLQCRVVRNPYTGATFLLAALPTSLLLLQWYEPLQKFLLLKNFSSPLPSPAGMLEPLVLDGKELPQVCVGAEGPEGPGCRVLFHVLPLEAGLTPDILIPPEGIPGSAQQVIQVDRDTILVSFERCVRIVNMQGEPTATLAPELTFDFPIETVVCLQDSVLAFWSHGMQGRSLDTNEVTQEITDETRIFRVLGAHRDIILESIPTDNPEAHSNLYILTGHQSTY

[12] = target: Fibroblast growth factor receptor 1 (Homo sapiens, UniProt P11362); assay type: functional
[13] = target: Death-associated protein kinase 3 (Homo sapiens, UniProt O43293); assay type: functional;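 also: measured as one member of a kinome-wide profiling panel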
[14] = target: 5'-AMP-activated protein kinase catalytic subunit alpha-1 (Homo sapiens, UniProt Q13131); assay type: functional
[15] = target: MAP/microtubule affinity-regulating kinase 3 (Homo sapiens, UniProt P27448); assay type: functional;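 also: MARK3 affinity measured as one member of a kinome panel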
[16] = target: Tyrosine-protein kinase JAK2 (Homo sapiens, UniProt O60674); assay type: functional;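 also: JAK2 tested as one member of a kinase panel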
[17] = target: BDNF/NT-3 growth factors receptor (Homo sapiens, UniProt Q16620); assay type: functional;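 also: NTRK2 measured as one member of a broad kinome-wide kinase profiling panel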
BDNF/NT-3 growth factors receptor, sequence (Q16620 whole entry): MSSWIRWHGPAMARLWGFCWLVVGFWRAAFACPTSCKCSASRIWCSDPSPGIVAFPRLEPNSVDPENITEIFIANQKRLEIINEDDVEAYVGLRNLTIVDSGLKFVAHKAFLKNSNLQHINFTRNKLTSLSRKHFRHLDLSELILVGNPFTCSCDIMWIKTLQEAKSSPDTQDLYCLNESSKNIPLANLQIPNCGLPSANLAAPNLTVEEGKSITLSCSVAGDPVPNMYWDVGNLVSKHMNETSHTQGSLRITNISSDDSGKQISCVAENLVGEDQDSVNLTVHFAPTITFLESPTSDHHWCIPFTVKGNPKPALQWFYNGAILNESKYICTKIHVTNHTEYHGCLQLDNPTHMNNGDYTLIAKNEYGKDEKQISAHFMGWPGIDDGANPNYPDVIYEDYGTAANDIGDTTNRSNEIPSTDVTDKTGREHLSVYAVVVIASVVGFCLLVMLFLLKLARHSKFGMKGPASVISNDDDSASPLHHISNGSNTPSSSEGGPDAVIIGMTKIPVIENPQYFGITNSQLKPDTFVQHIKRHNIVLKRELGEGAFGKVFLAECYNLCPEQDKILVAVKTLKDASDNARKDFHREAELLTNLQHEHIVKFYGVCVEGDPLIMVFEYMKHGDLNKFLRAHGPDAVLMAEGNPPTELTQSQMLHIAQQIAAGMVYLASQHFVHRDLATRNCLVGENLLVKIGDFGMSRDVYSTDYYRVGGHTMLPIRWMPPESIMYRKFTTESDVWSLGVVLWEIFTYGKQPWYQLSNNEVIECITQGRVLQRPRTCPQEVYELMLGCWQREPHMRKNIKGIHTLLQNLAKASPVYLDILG

[18] = target: Hepatocyte growth factor receptor (Homo sapiens, UniProt P08581); assay type: functional;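 also: kinase panel profiling across the kinome, with MET as the panel member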
[19] = target: ALK tyrosine kinase receptor (Homo sapiens, UniProt Q9UM73); assay type: functional;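 also: ALK tested as one member of a kinase panel screen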
[20] = target: Mitogen-activated protein kinase kinase kinase kinase 4 (Homo sapiens, UniProt O95819); assay type: functional
[21] = target: cAMP-dependent protein kinase catalytic subunit alpha (Homo sapiens, UniProt P17612); assay type: functional
[22] = target: Dual specificity protein kinase CLK2 (Homo sapiens, UniProt P49760); assay type: functional
Dual specificity protein kinase CLK2, sequence (P49760 whole entry): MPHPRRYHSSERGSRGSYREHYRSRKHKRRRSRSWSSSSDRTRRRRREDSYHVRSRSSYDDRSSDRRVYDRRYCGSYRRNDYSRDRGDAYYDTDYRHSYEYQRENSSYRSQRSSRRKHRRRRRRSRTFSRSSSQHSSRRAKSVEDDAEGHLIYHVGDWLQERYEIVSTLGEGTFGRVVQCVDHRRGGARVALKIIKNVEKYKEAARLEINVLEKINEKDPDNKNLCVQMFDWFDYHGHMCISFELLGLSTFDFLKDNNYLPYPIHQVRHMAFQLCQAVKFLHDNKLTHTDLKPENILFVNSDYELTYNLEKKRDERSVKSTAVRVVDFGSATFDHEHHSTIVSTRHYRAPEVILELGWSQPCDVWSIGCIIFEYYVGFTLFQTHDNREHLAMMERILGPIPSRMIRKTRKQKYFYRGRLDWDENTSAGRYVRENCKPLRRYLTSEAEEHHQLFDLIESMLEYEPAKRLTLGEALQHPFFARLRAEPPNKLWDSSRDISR

[23] = target: Serine/threonine-protein kinase TAO1 (Homo sapiens, UniProt Q7L7X3); assay type: functional

SMILES | AC50 (INS1) | IC50 [1] | EC50 (Streptococcus) | EC50 [2] | IC50 [3] | IC50 [4] | Ki [5] | Ki [6] | Ki [7] | Ki [8] | Ki [9] | Ki [10] | Ki [11] | Ki [12] | Ki [13] | Ki [14] | Ki [15] | Ki [16] | Ki [17] | Ki [18] | further results
Cc1cc(C)c[n+](C2=C([N-]S(=O)(=O)c3cccs3)C(=O)c3ccccc3C2=O)c1 | 3.12 µM (active) | > 80 µM (inactive) | 9.57 µM (active) | 0.941 µM (active) | 33.4 µM (active) |  |  |  |  |  |  |  |  |  |  |  |  |  |  |  | 
CCCCCCCCCCC[N+](C)(C)CC/C=C1/c2ccccc2Sc2ccc(Cl)cc21 |  |  | 7.23 µM (active) | 1.46 µM (active) |  | 11.6 µM (active) |  |  |  |  |  |  |  |  |  |  |  |  |  |  | 
CCn1c(-c2nonc2N)nc2cncc(C(=O)N3CCC(N)C3)c21 (stereo not given) |  |  |  |  |  |  | > 2 µM (inactive) | > 6.31 µM (inactive) | > 2.51 µM (inactive) | > 3.98 µM (inactive) | > 5.01 µM (inactive) | 0.398 µM (active) | > 2.51 µM (inactive) | > 3.98 µM (inactive) | 0.0794 µM (active) | > 3.16 µM (inactive) | 2 µM (active) | > 2.51 µM (inactive) | > 3.98 µM (inactive) | > 2.51 µM (inactive) | Ki [19]: > 6.31 µM (inactive); Ki [20]: > 3.16 µM (inactive); Ki [21]: 0.00316 µM (active); Ki [22]: 1 µM (active); Ki [23]: > 6.31 µM (inactive)
Cc1[nH]nc2ccc(-c3cncc(OCC(N)Cc4c[nH]c5ccccc45)c3)cc12 (stereo not given) |  |  |  |  |  |  | 3.98 µM (active) | > 0.794 µM (inactive) | > 2.51 µM (inactive) | 2 µM (active) | 1.58 µM (active) | 0.126 µM (active) | 0.0251 µM (active) | 3.16 µM (active) | 0.1 µM (active) | 0.158 µM (active) | 0.398 µM (active) | > 1.58 µM (inactive) | > 5.01 µM (inactive) | > 3.16 µM (inactive) | Ki [19]: > 1.26 µM (inactive); Ki [20]: 0.0501 µM (active); Ki [21]: 0.00501 µM (active); Ki [22]: 0.00316 µM (active); Ki [23]: > 10 µM (inactive)
COC(=O)c1ccccc1NC1=C/C(=N\S(=O)(=O)c2cccs2)c2ccccc2C1=O | 2.19 µM (active) | 27.2 µM (inactive) |  |  | 41.2 µM (active) | 1.82 µM (active) |  |  |  |  |  |  |  |  |  |  |  |  |  |  | 
